Assay results as given in BigSolDB 2.1.

O=C1CCC(c2ccc(Cl)c(Cl)c2)c2ccccc21 (configuration not stated)
Details | solubility (mole fraction)
in DMF, 278.16 K | 0.0335
in DMF, 283.37 K | 0.0408
in DMF, 288.12 K | 0.0487
in DMF, 293.13 K | 0.059
in DMF, 298.17 K | 0.0717
in DMF, 303.28 K | 0.0881
in DMF, 308.28 K | 0.106
in DMF, 313.32 K | 0.129
in DMF, 318.27 K | 0.155
in THF, 278.04 K | 0.0699
in THF, 282.93 K | 0.0823
in THF, 288.33 K | 0.096
in THF, 293.28 K | 0.109
in THF, 298.24 K | 0.124
in THF, 302.94 K | 0.14
in THF, 308.34 K | 0.162
in THF, 313.52 K | 0.187
in acetone, 282.13 K | 0.0162
in acetone, 288.02 K | 0.0217
in acetone, 292.83 K | 0.0261
in acetone, 298.28 K | 0.0321
in acetone, 303.23 K | 0.0397
in acetone, 307.94 K | 0.0498
in acetone, 313.74 K | 0.0673
in acetone, 318.56 K | 0.0871
in acetone, 323.57 K | 0.114
in ethanol, 283.12 K | 0.00171
in ethanol, 288.27 K | 0.0021
in ethanol, 293.38 K | 0.00252
in ethanol, 298.04 K | 0.00303
in ethanol, 302.93 K | 0.00376
in ethanol, 308.32 K | 0.0049
in ethanol, 314.17 K | 0.00667
in ethanol, 318.74 K | 0.00852
in ethanol, 323.26 K | 0.0108
in isopropanol, 278.12 K | 0.000955
in isopropanol, 283.38 K | 0.00128
in isopropanol, 288.33 K | 0.00163
in isopropanol, 293.07 K | 0.00209
in isopropanol, 298.33 K | 0.00278
in isopropanol, 303.36 K | 0.0037
in isopropanol, 308.46 K | 0.00496
in isopropanol, 313.26 K | 0.00649
in isopropanol, 318.54 K | 0.00864
in methanol, 277.93 K | 0.00087
in methanol, 283.06 K | 0.00107
in methanol, 288.28 K | 0.00141
in methanol, 293.42 K | 0.00186
in methanol, 298.04 K | 0.00235
in methanol, 302.77 K | 0.00293
in methanol, 308.56 K | 0.00372
in methanol, 313.53 K | 0.00446
in methanol, 319.04 K | 0.00533
in toluene, 278.18 K | 0.0391
in toluene, 283.13 K | 0.0461
in toluene, 288.28 K | 0.0548
in toluene, 293.22 K | 0.0649
in toluene, 298.12 K | 0.0771
in toluene, 303.14 K | 0.0924
in toluene, 308.46 K | 0.112
in toluene, 313.43 K | 0.135
in toluene, 318.34 K | 0.161
